According to patent publication US8173384B2, “Methods for analyzing or processing a heparin sample” (Massachusetts Institute of Technology, priority 2000, dated 2012):
Where two headings read alike, the source gives them in different places.

How the values were obtained:
[1] = target: T1, heparinase I (Pedobacter heparinus, UniProt Q05819); test: Exhaustive heparinase I digestion, products by MALDI-MS; assay type: biochemical, Flavobacterium heparinum
T1 construct: made in house
Experimental: (§1) Digests. Heparinase I digests were completed as described (Venkataraman, G., Shriver, Z., Raman, R. & Sasisekharan, R. (1999) Science 286, 537-42 and Rhomberg, A. J., Ernst, S., Sasisekharan, R. & Biemann, K. (1998) Proc Natl Acad Sci USA 95, 4176-81). Heparinase II or III reactions were completed in essentially the same way at room temperature in 10 μM ovalbumin, 1 μM dextran sulfate, and 10 mM ethylenediamine, pH 7.0. Short digestions were completed with 50 nM enzyme for 10 minutes while exhaustive digests were completed with 200 nM enzyme overnight. Mass spectra were collected using parameters as outlined above (see also Shriver, Z., Raman, R., Venkataraman, G., Drummond, K., Turnbull, J., Toida, T., Linhardt, R., Biemann, K. & Sasisekharan, R. (2000) Proc Natl Acad Sci USA, 2000 Sep. 12; 97(19):10359-64) and calibrated externally by using signals for protonated (RG)19R and its complex with a nitrous acid-derived hexasaccharide of the sequence I2SHNS,6S I2SHNS,6S I2SMan6S
(§2) Enzymatic Action of the Heparinases Towards the AT-III Binding Site: Previously, we investigated the substrate specificity of heparinases I and II towards AT-10 (Rhomberg, A. J., Shriver, Z., Biemann, K. & Sasisekharan, R. (1998) Proc Natl Acad Sci USA 95, 12232-7 and Ernst, S., Rhomberg, A. J., Biemann, K. & Sasisekharan, R. (1998) Proc Natl Acad Sci USA 95, 4182-7). These studies, however, were carried out assuming a published structure (Toida, T., Hileman, R. E., Smith, A. E., Vlahova, P. I. & Linhardt, R. J. (1996) J Biol Chem 271, 32040-7). In light of the newly determined structure of AT-10 described herein (see also Shriver, Z., Raman, R., Venkataraman, G., Drummond, K., Turnbull, J., Toida, T., Linhardt, R., Biemann, K. & Sasisekharan, R. (2000) Proc Natl Acad Sci USA, 2000 Sep. 12; 97(19):10359-64), we reexamined the enzymatic action of heparinases I, II, and III towards oligosaccharides containing a 3-O sulfate that is critical for high affinity AT-III binding. For these studies, we used three oligosaccharides, two pentasaccharides (Penta 1 and Penta 2, FIG. 5) and a hexasaccharide (Hexa 1, FIG. 5). […]
(§3) Compositional Analysis: UFH was subjected to exhaustive depolymerization with an enzyme cocktail made up of Heparinase I, Heparinase II, and Heparinase III. […] The samples were analyzed by CE in reverse polarity with a running buffer of 50 mM tris/phosphate, 10 μM dextran sulfate, pH 2.5. […] Each sample was digested in duplicate and the experiment was repeated twice for each sample, resulting in four readings per sample. All of the 8 resulting peaks were collected, and the purity of the collected samples was checked by re-injecting into CE, and their mass was measured by offline MALDI Mass Spectrometry. […]

[2] = target: T2, heparinase II (Pedobacter heparinus, UniProt C6XZB6); test: Exhaustive heparinase II digestion, products by MALDI-MS; assay type: biochemical, Flavobacterium heparinum
T2 construct: made in house
Experimental: as §1, §2, §3

[3] = target: T3, heparinase III (Pedobacter heparinus, UniProt Q59289); test: Exhaustive heparinase III digestion, products by MALDI-MS; assay type: biochemical, Flavobacterium heparinum
T3 construct: made in house
Experimental: as §1, §2, §3

[4] = test system: factor Xa (FXa); test: Anti-Xa assay (factor Xa generation inhibition; factor Xa from serum or purified); assay type: biochemical
Experimental: (§4) Biological Measurements of Decasaccharide Activity. In vitro anticoagulant activity was determined as described previously (Hoppensteadt, D. A., Jeske, W. P., Walenga, J. M., Fu, K., Yang, L. H., Ing, T. S., Herbert, J. M. & Fareed, J. (1999) Thromb Res 96, 115-24 and Dietrich, C. P., Paiva, J. F., Castro, R. A., Chavante, S. F., Jeske, W., Fareed, J., Gorin, P. A., Mendes, A. & Nader, H. B. (1999) Biochim Biophys Acta 1428, 273-83), according to the United States Pharmacopoeia. Thrombin (FIIa) and factor Xa (FXa) generation inhibition assays were completed essentially as described. Briefly, either AT-10 decasaccharide, Enoxaparin LMWH or the synthetic AT-III binding pentasaccharide (Penta 1) used in this study was dissolved in sterile saline at the designated concentrations. To this sample was added an equal volume of fibrinogen deficient plasma diluted 1:8 in 100 mM Tris-HCl (pH 8.5). In a separate sample, the same concentration of heparin oligosaccharide and actin was added in a 1:1 ratio to either Spectrozyme TH or FXa. In this manner, the intrinsic IIa and Xa generation was measured. In addition, to account for inhibition of thrombin and extrinsic generation of FXa, thromboplastin C was diluted 1:6 with either Spectrozyme TH or FXa. For all samples, the optical density was measured at 405 nm and results are expressed as a % inhibition compared to a unsupplemented saline control. […]

[5] = target: T4, Thrombin (FIIa) (Homo sapiens, UniProt P00734); test: Anti-IIa assay (thrombin generation inhibition); assay type: biochemical
T4 construct: purchased Ortho Diagnostic Systems, Inc. (Raritan, N.J.) Fibrindex
Experimental: as §4

[6] = test system: whole blood; test: HepTest
Experimental: Whole blood data were also used to determine the anticoagulant activity of AT-10. The assays, activated partial thromboplastin time (APTT) and prothrombin time (PT) was conducted in a manner similar to what has been previously reported (Dietrich, C. P., Paiva, J. F., Castro, R. A., Chavante, S. F., Jeske, W., Fareed, J., Gorin, P. A., Mendes, A. & Nader, H. B. (1999) Biochim Biophys Acta 1428, 273-83). APTT reagent was obtained from Organon Teknika (Durham, N.C.) and HepTest Reagent was obtained from Haemachem (St. Louis, Mo.).

[7] = target: T5, human AT-III (Homo sapiens, UniProt P01008); conditions: Desai et al. 1998; cited from earlier work
[8] = target: T5, human AT-III; test: Equilibrium fluorescence titration of AT-III with saccharide; assay type: binding
Experimental: Equilibrium Fluorescence Titration Experiments. Titrations of human AT-III with either AT-10 decasaccharide or heparin were completed at 25° C. using a Fluorolog 2 machine (Spex Instruments) (Meagher, J. L., Beechem, J. M., Olson, S. T. & Gettins, P. G. (1998) J Biol Chem 273, 23283-9 and Desai, U. R., Petitou, M., Bjork, I. & Olson, S. T. (1998) J Biol Chem 273, 7478-87). […] With the pH 7.4 buffer, sodium chloride was added to a final concentration of 100 mM.
Fluorescence emission spectra were collected from 300-400 nm with a 280 nm excitation wavelength and a 5 s integration time. Briefly, the titration experiments were conducted as follows—aliquots of either decasaccharide or heparin was added to a 1 μm solution of AT-III, the solution was allowed to come to equilibrium for one minute, and an emission spectrum collected. Addition of sequential saccharide aliquots and fluorescence signal was adjusted to account for protein dilution.

T3 sequence (Q59289 25-659): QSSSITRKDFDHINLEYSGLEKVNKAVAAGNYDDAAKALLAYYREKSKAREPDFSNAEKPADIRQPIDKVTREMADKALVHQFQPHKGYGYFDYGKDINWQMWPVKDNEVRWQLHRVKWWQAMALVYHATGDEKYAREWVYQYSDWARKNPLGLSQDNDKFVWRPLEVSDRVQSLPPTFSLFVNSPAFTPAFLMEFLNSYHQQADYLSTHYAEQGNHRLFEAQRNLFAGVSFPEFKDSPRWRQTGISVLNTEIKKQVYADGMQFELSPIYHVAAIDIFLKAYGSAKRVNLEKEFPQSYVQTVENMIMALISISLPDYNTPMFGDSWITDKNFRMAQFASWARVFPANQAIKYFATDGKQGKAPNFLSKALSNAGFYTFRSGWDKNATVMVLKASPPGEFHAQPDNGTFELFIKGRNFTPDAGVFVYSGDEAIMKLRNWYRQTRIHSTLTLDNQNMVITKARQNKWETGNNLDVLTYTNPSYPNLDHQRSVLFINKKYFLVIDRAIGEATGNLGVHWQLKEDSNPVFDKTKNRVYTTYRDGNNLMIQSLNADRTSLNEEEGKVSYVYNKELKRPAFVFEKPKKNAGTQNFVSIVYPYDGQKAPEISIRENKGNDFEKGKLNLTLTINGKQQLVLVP
T1 sequence (Q05819 22-384): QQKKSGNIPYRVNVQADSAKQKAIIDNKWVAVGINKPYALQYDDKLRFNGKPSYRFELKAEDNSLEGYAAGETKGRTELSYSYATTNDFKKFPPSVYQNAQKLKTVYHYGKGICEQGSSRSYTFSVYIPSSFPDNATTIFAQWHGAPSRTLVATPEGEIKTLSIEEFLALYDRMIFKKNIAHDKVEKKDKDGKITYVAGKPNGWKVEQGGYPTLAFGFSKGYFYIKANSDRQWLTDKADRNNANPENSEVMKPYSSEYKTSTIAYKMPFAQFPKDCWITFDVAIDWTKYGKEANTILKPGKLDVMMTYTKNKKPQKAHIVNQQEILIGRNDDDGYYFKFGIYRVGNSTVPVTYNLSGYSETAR
T2 sequence (C6XZB6 26-772): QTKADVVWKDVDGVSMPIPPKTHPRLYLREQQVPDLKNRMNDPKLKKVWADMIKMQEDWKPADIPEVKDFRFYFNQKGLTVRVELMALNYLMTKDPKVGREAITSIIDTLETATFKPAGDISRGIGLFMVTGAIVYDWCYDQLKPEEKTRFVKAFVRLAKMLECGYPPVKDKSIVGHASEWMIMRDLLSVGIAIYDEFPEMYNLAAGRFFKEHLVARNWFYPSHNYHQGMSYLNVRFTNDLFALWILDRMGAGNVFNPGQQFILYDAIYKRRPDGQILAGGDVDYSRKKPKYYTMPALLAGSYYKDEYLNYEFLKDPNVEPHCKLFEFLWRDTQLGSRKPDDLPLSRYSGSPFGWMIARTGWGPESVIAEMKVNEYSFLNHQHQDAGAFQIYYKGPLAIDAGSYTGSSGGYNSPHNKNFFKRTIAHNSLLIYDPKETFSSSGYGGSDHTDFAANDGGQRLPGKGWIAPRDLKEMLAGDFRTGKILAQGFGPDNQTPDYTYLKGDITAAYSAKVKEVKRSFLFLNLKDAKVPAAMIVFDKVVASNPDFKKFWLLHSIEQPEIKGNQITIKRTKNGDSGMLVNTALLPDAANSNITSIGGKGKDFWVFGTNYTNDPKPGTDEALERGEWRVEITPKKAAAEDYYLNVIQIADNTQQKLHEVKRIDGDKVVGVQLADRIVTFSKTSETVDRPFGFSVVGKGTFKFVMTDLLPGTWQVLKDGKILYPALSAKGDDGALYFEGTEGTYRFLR

SMILES	cleavage by heparinase I [1]	cleavage by heparinase II [2]	cleavage by heparinase III [3]	IC50 [4] [nM]	anti-IIa activity (in words) [5]	HepTest activity (in words) [6]	affinity for AT-III, previous studies (in words) [7]	Kd ([8]; pH 6.0 I=0.025, read-out: KD for AT-III) [nM]	Kd ([8]; pH 6.2, read-out: apparent KD for AT-III) [nM]	affinity for AT-III (in words) ([8]; pH 7.4, I=0.15)
CC(=O)N[C@H]1[C@@H](O[C@H]2[C@H](O)[C@@H](O)[C@H](O[C@H]3[C@H](OS(=O)(=O)O)[C@@H](NS(=O)(=O)O)C(O)O[C@@H]3COS(=O)(=O)O)O[C@@H]2C(=O)O)O[C@H](COS(=O)(=O)O)[C@@H](O[C@@H]2OC(C(=O)O)=C[C@H](O)[C@H]2O)[C@@H]1O (stereo partly drawn) [ΔUHNAC,6SGHNS,3S,6S]	resistant to further degradation	resistant to further degradation	resistant to further degradation	–	–	–	–	–	–	–
CC(=O)NC1C(OC2C(C(=O)O)OC(OC3C(COS(=O)(=O)O)OC(O)C(NS(=O)(=O)O)C3OS(=O)(=O)O)C(O)C2O)OC(COS(=O)(=O)O)C(OC2OC(C(=O)O)C(OC3OC(COS(=O)(=O)O)C(OC4OC(C(=O)O)=CC(O)C4OS(=O)(=O)O)C(O)C3NS(=O)(=O)O)C(O)C2O)C1O [Hexa 1, ΔU2SHNS,6SIHNAc,6S, GHNS,3S,6S]	not cleaved	susceptible	susceptible	–	–	–	–	–	–	–
CO[C@H]1O[C@H](COS(=O)(=O)O)[C@@H](O[C@@H]2O[C@@H](C(=O)O)[C@@H](O[C@H]3O[C@H](COS(=O)(=O)O)[C@@H](O[C@@H]4O[C@H](C(=O)O)[C@@H](O[C@H]5O[C@H](COS(=O)(=O)O)[C@@H](O)[C@H](O)[C@H]5NS(=O)(=O)O)[C@H](O)[C@H]4O)[C@H](OS(=O)(=O)O)[C@H]3NS(=O)(=O)O)[C@H](O)[C@H]2OS(=O)(=O)O)[C@H](O)[C@H]1NS(=O)(=O)O [Penta 1, HNS,6SGHNS,3S,6SI2SHNS,6S,OMe]	cleave	cleave	not cleavable	39	neither the decasaccharide nor the pentasaccharide have significant anti-IIa activity	significantly higher activity than the AT-10 decasaccharide	affinity similar to that of full length heparin	–	–	–
CC(=O)NC1C(OC2C(C(=O)O)OC(OC3C(COS(=O)(=O)O)OC(O)C(NS(=O)(=O)O)C3OS(=O)(=O)O)C(O)C2O)OC(COS(=O)(=O)O)C(OC2OC(C(=O)O)C(OC3OC(COS(=O)(=O)O)C(OC4OC(C(=O)O)C(OC5OC(COS(=O)(=O)O)C(OC6OC(C(=O)O)C(OC7OC(COS(=O)(=O)O)C(OC8OC(C(=O)O)=CC(O)C8OS(=O)(=O)O)C(O)C7NS(=O)(=O)O)C(O)C6OS(=O)(=O)O)C(O)C5NS(=O)(=O)O)C(O)C4OS(=O)(=O)O)C(O)C3NS(=O)(=O)O)C(O)C2O)C1O [AT-10, ΔU2SHNS,6SI2SHNS,6SI2SHNS,6SIHNAc,6SGHNS,3S,6S]	–	–	–	280	neither the decasaccharide nor the pentasaccharide have significant anti-IIa activity	–	–	800	800	very little affinity
CO[C@H]1O[C@H](COS(=O)(=O)O)[C@@H](O[C@@H]2O[C@@H](C(=O)O)[C@@H](O[C@H]3O[C@H](COS(=O)(=O)O)[C@@H](O[C@@H]4O[C@H](C(=O)O)[C@@H](O[C@H]5O[C@H](COS(=O)(=O)O)[C@@H](O)[C@H](O)[C@H]5NS(=O)(=O)O)[C@H](O)[C@H]4O)[C@H](O)[C@H]3NS(=O)(=O)O)[C@H](O)[C@H]2OS(=O)(=O)O)[C@H](O)[C@H]1NS(=O)(=O)O [Penta 2, HNS,6SGHNS,6SI2SHNS,6S,OMe]	efficiently cleave	efficiently cleave	efficiently cleave	–	–	–	–	–	–	–
